Where two headings read alike, the source gives them in different places. Where a SMILES comes first, the peptide text is derived from it.
Legend:
RSV A long virus strain = type: cell-based
Procedure: In this embodiment, an RSV-A long virus strain was used as an infection virus in the present disclosure. The anti-RSV activity of the synthesized polypeptide was determined through CPE detection.
The inhibitory activity of the compounds of Table 1-1-Table 1-5, positive polypeptide in Table 1-11, and positive control T-118 against the RSV-A long virus strain was detected.
(§1) Human Epithelial Pharyngeal Carcinoma Cells (HEp-2) were from the American Type Culture Collection (ATCC), with a catalog number CCL-23. The cells were cultured in a DMEM culture solution in which 10% fetal bovine serum, 1% sodium pyruvate, 1% nonessential amino acids, 2 mM glutamine, 100 U/mL penicillin, and 100 μg/mL streptomycin were added. The RSV A long virus strain was from the ATCC, with a catalog number VR-26.
This study used a plaque reduction experiment to detect the in-vitro activity of a test sample against the RSV A long virus strain. The test sample and a control compound were tested at 8 concentrations in duplicated wells. The HEp-2 cells were digested with trypsin and then diluted to a concentration of 300,000 cells per milliliter by using an experimental culture solution. The diluted cells were added to a 96-well cell test board, with 100 μL per well, corresponding to 30000 cells per well. The cells were cultured overnight in a 37° C. incubator with 5% CO2. On the second day, the test sample was diluted in an experimental culture medium at a fold ratio. The sample diluted at a fold ratio and an equal volume of virus (100 PFU per well) were well mixed and incubated at 37° C. in 5% CO2 for 1 h. Then, the culture solution in the 96-well cell test board was discarded, the sample virus mixed solution (200 μL) was added to the 96-well cell culture plate, and incubated at 37° C. in 5% CO2 for 2 hours. After 2 h, the sample virus mixed solution was discarded, and 200 μL of maintenance culture medium containing 0.8% CMC and the corresponding concentration of the test sample was added. A cell control (cells, without compound treatment or viral infection) and a viral control (cell infection virus, without compound treatment) were set. The cells were cultured for 1 day in the 37° C. incubator with 5% CO2. One day after viral infection, the culture medium was discarded, the cells were fixed with 4% paraformaldehyde, and then permeabilization was performed with 0.5% Triton X-100. After the plate was washed with DPBS, an RSV-specific antibody (RSV antibody, diluted 1:3000) was added and incubated at 37° C. for 1 h. Then, a secondary antibody (donkey anti-goat IgG, diluted 1:500) and incubated at 37° C. for 1 h. The secondary antibody was discarded, a TrueBlue solution was added, dyeing was performed for 10 min; and the plate was washed with running water and then air-dried, and the number of spots in each well was counted by using a microplate imaging counter. Raw data was used for calculating the antiviral activity of the samples.
(§2) The raw data for plaque counts and cell viability tests were used for analyzing the antiviral activity and cytotoxicity of the test samples, respectively. A calculation formula was shown as follows.
% inhibition rate=100−(sample value-cell control average value)/(virus control average value-cell control average value)×100%
(§3) Non-linear fitting analysis was performed on the inhibition rate of the sample by using GraphPad Prism (version 10), so as to calculate the IC50 and CC50 values for the sample.
IC50: in an in-vitro antiviral activity experiment, IC50 represented an inhibition ability indicator of a compound to be tested against the Hep-2 cells infected by the RSV A long virus strain.

[1] = Cytotoxicity test in HEp-2 cells (CCK8 cell viability); type: cell-based; details: human
Procedure: as §1
A cytotoxicity test and an antiviral test were performed in parallel. The HEp-2 cells were inoculated in the microplate at a density of 30,000 cells per well, and cultured overnight in the 37° C. incubator with 5% CO2. On the next day, the diluted test sample was added. The cell control (cells, without compound treatment) and a culture solution control (culture solution only, without cell or compound treatment) were set. A final concentration of DMSO in the culture solution was 0.5%. The cells were cultured for 1 day in the 37° C. incubator with 5% CO2. Cell viability was detected by using a cell viability detection kit CCK8.
as §2
cell survival rate=(sample value-culture medium control average value)/(cell control average value-culture medium control average value)×100
as §3
CC50: in the in-vitro antiviral activity experiment, CC50 was used to measure the toxicity of the compound to be tested to the Hep-2 cells. To be precise, when the compound to be tested was at a specific concentration, 50% of the Hep-2 cells was caused to die, and this concentration was defined as the CC50. A fitting formula was log (inhibitor) vs. response-Variable slope (four parameters).

[2] = RSV A long virus strain, HEp-2 cells, plaque reduction, 1 day, read-out: IC50
[3] = HEp-2 cells, CCK8, 1 day, read-out: CC50

SMILES | IC50 (RSV A long virus strain) | CC50 at 1 day [1] | IC50 (RSV A long virus strain; [2]) | CC50 at 1 day [1, 3]
CC[C@H](C)[C@H](NC(=O)[C@H](CCCCN)NC(=O)[C@H](CCCCN)NC(=O)[C@H](CC(C)C)NC(=O)[C@H](CO)NC(=O)[C@H](CCC(=O)O)NC(=O)[C@H](CCC(=O)O)NC(=O)[C@@H](NC(=O)[C@H](CCCCN)NC(=O)[C@H](CCCCN)NC(=O)[C@H](CC(N)=O)NC(=O)[C@@H](NC(=O)[C@H](CCC(=O)O)NC(=O)[C@H](CCC(=O)O)NC(=O)[C@@H](NC(=O)[C@H](CCCCN)NC(=O)[C@H](CCCCN)NC(=O)[C@H](CC(=O)O)NC(=O)[C@H](Cc1ccccc1)NC(=O)[C@H](CCC(=O)O)NC(=O)[C@H](CC(=O)O)NC(=O)[C@H](Cc1c[nH]c2ccccc12)NC(C)=O)[C@@H](C)CC)C(C)C)[C@@H](C)CC)C(=O)N[C@@H](CCC(=O)O)C(=O)N[C@@H](CCC(=O)O)C(=O)N[C@@H](CO)C(=O)N[C@@H](CC(=O)O)C(=O)N[C@@H](CCCCN)C(=O)N[C@@H](CCCCN)C(=O)N[C@@H](CC(C)C)C(=O)N[C@@H](CCC(=O)O)C(=O)N[C@@H](CCC(=O)O)C(=O)N[C@H](C(=O)N[C@@H](CC(N)=O)C(=O)N[C@@H](CCCCN)C(=O)N[C@@H](CCCCN)C(=O)N[C@@H](CC(C)C)C(N)=O)C(C)C [Compound 5] (Ac-WDEFDKKIEEVNKKIEESLKKIEESDKKLEEVNKKL-NH2) |  |  | 1.12 µM | > 8 µM
CC[C@H](C)[C@H](NC(=O)[C@H](Cc1ccccc1)NC(=O)[C@H](C)NC(=O)[C@H](CC(=O)O)NC(=O)[C@H](Cc1ccccc1)NC(C)=O)C(=O)N[C@@H](CCC(N)=O)C(=O)N[C@@H](CCC(=O)O)C(=O)N[C@H](C(=O)N[C@@H](CC(N)=O)C(=O)N[C@H](C(=O)N[C@@H](CC(N)=O)C(=O)N[C@@H](CCC(=O)O)C(=O)N[C@@H](CC(=O)O)C(=O)N[C@@H](CCC(N)=O)C(=O)N[C@@H](CO)C(=O)N[C@@H](CC(C)C)C(=O)N[C@@H](CCC(=O)O)C(=O)N[C@@H](CCC(N)=O)C(=O)N[C@@H](CO)C(=O)N[C@@H](CC(=O)O)C(=O)N[C@@H](CCC(=O)O)C(=O)N[C@@H](CC(C)C)C(=O)N[C@@H](CC(C)C)C(=O)N[C@@H](CC(C)C)C(=O)N[C@@H](CCC(=O)O)C(=O)N[C@@H](CC(C)C)C(=O)N[C@@H](Cc1c[nH]cn1)C(=O)N[C@@H](CC(C)C)C(=O)N[C@@H](CC(C)C)C(=O)N[C@@H](Cc1c[nH]cn1)C(=O)N[C@@H](CO)C(=O)N[C@@H](CC(C)C)C(=O)N[C@@H](CC(C)C)C(=O)N[C@@H](Cc1c[nH]cn1)C(N)=O)C(C)C)[C@@H](C)CC [Compound 7] (Ac-FDAFIQEINVNEDQSLEQSDELLLELHLLHSLLH-NH2) | > 8 µM | > 8 µM |  | 
CC[C@H](C)[C@H](NC(=O)[C@H](CCC(=O)O)NC(=O)[C@H](CCC(=O)O)NC(=O)[C@H](CC(C)C)NC(=O)[C@H](CO)NC(=O)[C@H](CCC(=O)O)NC(=O)[C@H](CCC(=O)O)NC(=O)[C@@H](NC(=O)[C@H](CCCCN)NC(=O)[C@H](CCC(=O)O)NC(=O)[C@H](CC(N)=O)NC(=O)[C@@H](NC(=O)[C@H](CCC(N)=O)NC(=O)[C@H](CC(N)=O)NC(=O)[C@@H](NC(=O)[C@H](CCCCN)NC(=O)[C@H](CCC(N)=O)NC(=O)[C@H](CC(N)=O)NC(=O)[C@H](Cc1ccccc1)NC(=O)[C@H](CCC(=O)O)NC(=O)[C@H](C)NC(=O)[C@H](Cc1ccccc1)NC(C)=O)[C@@H](C)CC)C(C)C)[C@@H](C)CC)C(=O)N[C@@H](CCCNC(=N)N)C(=O)N[C@@H](CCCCN)C(=O)N[C@@H](CO)C(=O)N[C@@H](CC(=O)O)C(=O)N[C@@H](CCC(=O)O)C(=O)N[C@@H](CCC(=O)O)C(=O)N[C@@H](CC(C)C)C(=O)N[C@@H](Cc1c[nH]cn1)C(=O)N[C@@H](CC(N)=O)C(=O)N[C@H](C(=O)N[C@@H](CC(N)=O)C(=O)N[C@@H](C)C(=O)N[C@H](C(=O)N[C@H](C(N)=O)[C@@H](C)O)[C@@H](C)O)C(C)C [Compound 8] (Ac-FAEFNQKINQVNEKIEESLEEIRKSDEELHNVNATT-NH2) |  |  | 3.77 µM | > 8 µM

Further lines, with some results ahead:

IC50 (RSV A long virus strain) | SMILES | CC50 at 1 day [1] | IC50 (RSV A long virus strain; [2]) | CC50 at 1 day [1, 3]
> 8 µM | CC[C@H](C)[C@H](NC(=O)[C@H](CCCCN)NC(=O)[C@H](CC(C)C)NC(=O)[C@H](CC(C)C)NC(=O)[C@H](CO)NC(=O)[C@H](C)NC(=O)[C@H](CC(=O)O)NC(=O)[C@H](Cc1ccccc1)NC(C)=O)C(=O)N[C@@H](CCC(=O)O)C(=O)N[C@@H](CCC(=O)O)C(=O)N[C@@H](CCC(=O)O)C(=O)N[C@@H](CCCCN)C(=O)N[C@@H](CCCCN)C(=O)N[C@@H](CCCCN)C(=O)N[C@H](C(=O)N[C@@H](CCC(=O)O)C(=O)N[C@@H](CCC(=O)O)C(=O)N[C@@H](CC(C)C)C(=O)N[C@@H](CC(C)C)C(=O)N[C@@H](CCCCN)C(=O)N[C@@H](CC(C)C)C(=O)N[C@@H](Cc1c[nH]cn1)C(=O)N[C@@H](CC(N)=O)C(=O)N[C@@H](CCC(=O)O)C(=O)N[C@@H](CO)C(=O)N[C@@H](CC(=O)O)C(=O)N[C@@H](CCCCN)C(=O)N[C@@H](CCCCN)C(=O)N[C@@H](CC(C)C)C(=O)N[C@@H](CCC(=O)O)C(=O)N[C@@H](CCC(=O)O)C(=O)N[C@H](C(N)=O)C(C)C)[C@@H](C)CC [Compound 4] (Ac-FDASLLKIEEEKKKIEELLKLHNESDKKLEEV-NH2) | > 8 µM |  | 
> 8 µM | CC[C@H](C)[C@H](NC(=O)[C@H](CO)NC(=O)[C@H](CCC(=O)O)NC(=O)[C@H](CC(N)=O)NC(=O)[C@@H](NC(=O)[C@H](CCCCN)NC(=O)[C@H](CO)NC(=O)[C@H](CO)NC(=O)[C@H](C)NC(=O)[C@H](CC(=O)O)NC(=O)[C@H](CC(N)=O)NC(=O)[C@@H](NC(=O)[C@H](CCC(=O)O)NC(=O)[C@H](CC(C)C)NC(=O)[C@H](CCCNC(=N)N)NC(=O)[C@H](Cc1ccccc1)NC(=O)[C@H](C)NC(=O)[C@H](CC(=O)O)NC(=O)[C@H](C)NC(C)=O)C(C)C)[C@@H](C)CC)C(=O)N[C@@H](CCC(=O)O)C(=O)N[C@@H](CCC(=O)O)C(=O)N[C@@H](CO)C(=O)N[C@@H](CC(C)C)C(=O)N[C@@H](CC(C)C)C(=O)N[C@@H](CO)C(=O)N[C@@H](CC(C)C)C(=O)N[C@@H](CCC(=O)O)C(=O)N[C@@H](CCCCN)C(=O)N[C@@H](CC(C)C)C(=O)N[C@@H](Cc1c[nH]cn1)C(=O)N[C@@H](CC(N)=O)C(=O)N[C@H](C(=O)N[C@@H](CC(N)=O)C(=O)N[C@@H](C)C(=O)N[C@H](C(=O)N[C@@H](C)C(N)=O)[C@@H](C)O)C(C)C [Compound 6] (Ac-ADAFRLEVNDASSKINESIEESLLSLEKLHNVNATA-NH2) | > 8 µM |  | 
